# Data from US20100173987A1, “ACTIVE AGENT COMBINATIONS WITH INSECTICIDAL AND ACARICIDAL PROPERTIES” (priority 2006, published 2010).
# How the values were obtained:
# Format in all cases: in vivo
# [1] = system: Frankliniella occidentalis; test: Greenhouse test on bell pepper against Western flower thrips; details: on 15 open flowers
# Method: (§1) In a greenhouse of a size of 4000 m^2 run in accordance with an IPM program (no insecticide used), bell pepper plants of the cultivar “Requena” on perlite substrates are, about 11 weeks after transplanting, tested comparatively against Western flower thrips (Frankliniella occidentalis) using spiromesifen (240 SC) and the non-beneficial-species-sparing standard formetanate (50 SP) at the stated application rates. Two applications are carried out at an interval of 14 days. Application is by knapsack sprayer. A water application rate of 1000 l/ha is applied.
# (§2) Evaluations are carried out 7, 14, 21 and 28 days after the first treatment. As a natural enemy (beneficial species) of the Western flower thrips, use is made of Orius laevigalus from the family of the pirate bugs (Anthochoridae). Evaluation is carried out by counting the number of Western flower thrips on 15 open flowers. The number of beneficial species is also scored.
# [2] = system: Orius laevigalus; test: Greenhouse test on bell pepper: number of beneficial species scored
# Method: as §1, §2
# [3] = system: Bemisia tabaci; test: Bemisia tabaci test (cotton leaves, spray, mirid bugs added); details: 0.16 ppm, infested cotton leaves sprayed
# Method: Solvent: 7 parts by weight of dimethylformamide Emulsifier: 2 parts by weight of alkylaryl polyglycol ether
# To produce a suitable preparation of active compound, 1 part by weight of active compound is mixed with the stated amounts of solvent and emulsifier, and the concentrate is diluted with emulsifier-containing water to the desired concentration.
# Cotton leaves (Gossypium hirsutum) infested by the whitefly (Bemisia tabacii) are treated by being sprayed with the preparation of active compound at the desired concentration.
# After the desired period of time, a defined amount of mirid bugs (Macrolophus caliginosus) is added.
# After the desired period of time, the kill of the pest in % is determined. 100% means that all whiteflies have been killed; 0% means that none of the whiteflies have been killed. The determined kill rates are entered into Colby's formula.
# [4] = application 0.2 % (50 SP), 7 d after first treatment
# [5] = application 0.2 % (50 SP), 14 d after first treatment
# [6] = application 0.2 % (50 SP), 21 d after first treatment
# [7] = application 0.2 % (50 SP), 28 d after first treatment
# [8] = application 0.06 % (240 SC), 14 d after first treatment
# [9] = application 0.06 % (240 SC), 21 d after first treatment
# [10] = application 0.06 % (240 SC), 28 d after first treatment
Structure (SMILES),"Number Frankliniella occidentalis larvae + adults [1, 4]","Number Frankliniella occidentalis larvae + adults [1, 5]","Number Frankliniella occidentalis larvae + adults [1, 6]","Number Frankliniella occidentalis larvae + adults [1, 7]","Number Orius laevigalus larvae + adults [2, 4]","Number Orius laevigalus larvae + adults [2, 5]","Number Orius laevigalus larvae + adults [2, 6]","Number Orius laevigalus larvae + adults [2, 7]","Number Frankliniella occidentalis larvae + adults ([1]; application 0.06 % (240 SC), 7 d after first treatment, bell pepper greenhouse)","Number Frankliniella occidentalis larvae + adults [1, 8]","Number Frankliniella occidentalis larvae + adults [1, 9]","Number Frankliniella occidentalis larvae + adults [1, 10]","Number Orius laevigalus larvae + adults ([2]; application 0.06 % (240 SC), 7 d after first treatment)","Number Orius laevigalus larvae + adults [2, 8]","Number Orius laevigalus larvae + adults [2, 9]","Number Orius laevigalus larvae + adults [2, 10]",Kill in % after 14 d [3]
"CNC(=O)Oc1cccc(N=CN(C)C)c1 [Formetanate, reference compound]",2,3.5,8,18.8,0.3,0,0.3,0.3,–,–,–,–,–,–,–,–,–
"Cc1cc(C)c(C2=C(OC(=O)CC(C)(C)C)C3(CCCC3)OC2=O)c(C)c1 [Spiromesifen (Ex. I-b-1), Spiromesifen]",–,–,–,–,–,–,–,–,16.7,13.7,9,13.7,2.5,3.7,7.3,9,1.25%
